Laboratory results taken from PubChem BioAssay AID1963868 (Molecular Pharmacology Branch, DTP, NCI, 2024).

Tested on: KRAS PDC tumor spheroids (HUVEC+MSC), viability
Assay: Anticancer human tumor 254851-301-R-J1-PDC patient-derived colon carcinoma cell line growth inhibition [KRAS2]
Settings: for IC50: curve of first compound; for viability, T/C: stronger effect = lower value
Summary of the method: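 KRAS-mutant tumor cells were grown as spheroids with HUVEC endothelial cells and human MSCs as stroma. Targeted agents were tested alone and with KRAS pathway inhibitors. Doses started at or near clinical Cmax, or 10 microM, descending half-log.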

[1] = second compound 0.1 µM, first compound 0.000316 µM
[2] = second compound 0.1 µM, first compound 0.001 µM
[3] = second compound 0.1 µM, first compound 0.00316 µM
[4] = second compound 0.1 µM, first compound 0.01 µM
[5] = second compound 0.1 µM, first compound 0.0316 µM
[6] = second compound 0.1 µM, first compound 0.1 µM
[7] = second compound 0.316 µM, first compound 0.000316 µM
[8] = second compound 0.316 µM, first compound 0.001 µM
[9] = second compound 0.316 µM, first compound 0.00316 µM
[10] = second compound 0.316 µM, first compound 0.01 µM
[11] = second compound 0.316 µM, first compound 0.0316 µM
[12] = second compound 0.316 µM, first compound 0.1 µM
[13] = second compound 1 µM, first compound 0.000316 µM
[14] = second compound 1 µM, first compound 0.001 µM
[15] = second compound 1 µM, first compound 0.00316 µM
[16] = second compound 1 µM, first compound 0.01 µM
[17] = second compound 1 µM, first compound 0.0316 µM
[18] = second compound 1 µM, first compound 0.1 µM
[19] = second compound 3.16 µM, first compound 0.000316 µM
[20] = second compound 3.16 µM, first compound 0.001 µM
[21] = second compound 3.16 µM, first compound 0.00316 µM
[22] = second compound 3.16 µM, first compound 0.01 µM
[23] = second compound 3.16 µM, first compound 0.0316 µM
[24] = second compound 3.16 µM, first compound 0.1 µM
[25] = second compound 10 µM, first compound 0.000316 µM
[26] = second compound 10 µM, first compound 0.001 µM
[27] = second compound 10 µM, first compound 0.00316 µM
[28] = second compound 10 µM, first compound 0.01 µM
[29] = second compound 10 µM, first compound 0.0316 µM
[30] = second compound 10 µM, first compound 0.1 µM
[31] = second compound 0.1 µM, first compound 0.316 µM
[32] = second compound 0.1 µM, first compound 1 µM
[33] = second compound 0.1 µM, first compound 3.16 µM
[34] = second compound 0.1 µM, first compound 10 µM
[35] = second compound 0.316 µM, first compound 0.316 µM
[36] = second compound 0.316 µM, first compound 1 µM
[37] = second compound 0.316 µM, first compound 3.16 µM
[38] = second compound 0.316 µM, first compound 10 µM
[39] = second compound 1 µM, first compound 0.316 µM
[40] = second compound 1 µM, first compound 1 µM
[41] = second compound 1 µM, first compound 3.16 µM
[42] = second compound 1 µM, first compound 10 µM
[43] = second compound 3.16 µM, first compound 0.316 µM
[44] = second compound 3.16 µM, first compound 1 µM
[45] = second compound 3.16 µM, first compound 3.16 µM
[46] = second compound 3.16 µM, first compound 10 µM
[47] = second compound 10 µM, first compound 0.316 µM
[48] = second compound 10 µM, first compound 1 µM
[49] = second compound 10 µM, first compound 3.16 µM
[50] = second compound 10 µM, first compound 10 µM
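Further: spheroids exposed to compounds for seven days before readout.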
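Wherever viability, T/C is given: 100% = DMSO vehicle control luminescence of the spheroids.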

SMILES | IC50 (second compound 0.1 µM) | IC50 (second compound 0.316 µM) | IC50 (second compound 1 µM) | IC50 (second compound 3.16 µM) | IC50 (second compound 10 µM) | viability, T/C [1] | viability, T/C [2] | viability, T/C [3] | viability, T/C [4] | viability, T/C [5] | viability, T/C [6] | viability, T/C [7] | viability, T/C [11] | viability, T/C [12] | viability, T/C [17] | viability, T/C [18] | viability, T/C [23] | viability, T/C [24] | viability, T/C [29] | viability, T/C [30] | also measured
CC(C)n1nc(-c2ccc3oc(N)nc3c2)c2c(N)ncnc21 + CC1OCC2(CCN(c3cnc(Sc4ccnc(N)c4Cl)c(N)n3)CC2)C1N | 17.5 nM | 20.5 nM | 18.6 nM | 15.8 nM | 11.3 nM | 103% | 98.2% | 89.3% | 69.8% | 29.4% | 19.9% | 101% | 34.4% | 23.2% | 36.8% | 19.6% | 30.2% | 18.4% | 31.3% | 18.1% | viability, T/C [8]: 99.7%; viability, T/C [9]: 88.8%; viability, T/C [10]: 75.3%; viability, T/C [13]: 87.1%; viability, T/C [14]: 78.5%; viability, T/C [15]: 84.5%; viability, T/C [16]: 64.8%; viability, T/C [19]: 74.7%; viability, T/C [20]: 72.5%; viability, T/C [21]: 72.3%; viability, T/C [22]: 63.1%; viability, T/C [25]: 65%; viability, T/C [26]: 71.7%; viability, T/C [27]: 66.6%; viability, T/C [28]: 50.9%
CC1(C)CCC(CN2CCN(c3ccc(C(=O)NS(=O)(=O)c4ccc(NCC5CCOCC5)c([N+](=O)[O-])c4)c(Oc4cnc5[nH]ccc5c4)c3)CC2)=C(c2ccc(Cl)cc2)C1 + CC1OCC2(CCN(c3cnc(Sc4ccnc(N)c4Cl)c(N)n3)CC2)C1N | > 10000 nM | > 10000 nM | > 10000 nM | 5560 nM | 2510 nM | – | – | – | – | 100% | 104% | – | 83.8% | 91% | 85.1% | 89.5% | 65.3% | 73.9% | 64.1% | 66.1% | viability, T/C [31]: 96.7%; viability, T/C [32]: 100%; viability, T/C [33]: 97.1%; viability, T/C [34]: 98.4%; viability, T/C [35]: 84.3%; viability, T/C [36]: 84.1%; viability, T/C [37]: 84.3%; viability, T/C [38]: 65.7%; viability, T/C [39]: 78.6%; viability, T/C [40]: 88.6%; viability, T/C [41]: 80.7%; viability, T/C [42]: 54%; viability, T/C [43]: 65.3%; viability, T/C [44]: 69%; viability, T/C [45]: 66.3%; viability, T/C [46]: 33%; viability, T/C [47]: 69.8%; viability, T/C [48]: 62.2%; viability, T/C [49]: 46.6%; viability, T/C [50]: 3.55%
COc1cc2nccc(Oc3ccc(NC(=O)C4(C(=O)Nc5ccc(F)cc5)CC4)cc3)c2cc1OC + CC1OCC2(CCN(c3cnc(Sc4ccnc(N)c4Cl)c(N)n3)CC2)C1N | 9270 nM | 9860 nM | 6690 nM | > 10000 nM | 6020 nM | – | – | – | – | 100% | 103% | – | 98.7% | 112% | 85.2% | 92.4% | 69.7% | 84.4% | 77.8% | 75.6% | viability, T/C [31]: 95.6%; viability, T/C [32]: 112%; viability, T/C [33]: 102%; viability, T/C [34]: 46.3%; viability, T/C [35]: 100%; viability, T/C [36]: 90.5%; viability, T/C [37]: 84.4%; viability, T/C [38]: 48.7%; viability, T/C [39]: 91.7%; viability, T/C [40]: 80.3%; viability, T/C [41]: 71.6%; viability, T/C [42]: 38.7%; viability, T/C [43]: 82.3%; viability, T/C [44]: 72.1%; viability, T/C [45]: 62.3%; viability, T/C [46]: 56.5%; viability, T/C [47]: 74.4%; viability, T/C [48]: 68.1%; viability, T/C [49]: 63.9%; viability, T/C [50]: 40.2%
Cn1ncnc1[C@H]1c2n[nH]c(=O)c3cc(F)cc(c23)N[C@@H]1c1ccc(F)cc1 + CC1OCC2(CCN(c3cnc(Sc4ccnc(N)c4Cl)c(N)n3)CC2)C1N | > 100 nM | > 100 nM | > 100 nM | > 100 nM | > 100 nM | 98% | 102% | 100% | 98% | 101% | 98.9% | 89.5% | 78.3% | 90.6% | 83.9% | 80.9% | 76.9% | 74.1% | 67.1% | 57.2% | viability, T/C [8]: 93.8%; viability, T/C [9]: 79%; viability, T/C [10]: 78.8%; viability, T/C [13]: 82.4%; viability, T/C [14]: 85.2%; viability, T/C [15]: 75.1%; viability, T/C [16]: 83.6%; viability, T/C [19]: 75.1%; viability, T/C [20]: 77.4%; viability, T/C [21]: 70.5%; viability, T/C [22]: 74.5%; viability, T/C [25]: 68.5%; viability, T/C [26]: 67.7%; viability, T/C [27]: 63.7%; viability, T/C [28]: 57.1%
